Values joined by “and” are separate entries in the source; they are usually repeats but may differ in a detail not shown here. Identical values can stand only once.
Assays:
[1] = molecular target: T1, thromboxane synthase (Guinea Pig Lung Microsomes) (Cavia porcellus, UniProt H0UT36); assay: biochemical; details: enzyme source G = Guinea Pig Lung Microsomes; read-out: IC50
T1 construct: The lungs were removed, freed of trachea and the majority of blood removed by rinsing the lungs with buffer; from tissue; host or cells: lungs of male guinea pigs (microsomes, 110,000 g pellet)
Description: In said assay procedure, microsomes from guinea pig lung or human platelets are added to an endoperoxide intermediate in prostaglandin biosynthesis and the inhibitor in phosphate buffer solution followed by incubation, extraction and determination of the extent of thromboxane synthase inhibition by TLC with radiochromatographic profile analysis. […]
Isolation of Guinea Pig Lung Microsomes
Four male guinea pigs (.congruent.500 g each) were sacrificed by spinal dislocation. The lungs were removed, freed of trachea and the majority of blood removed by rinsing the lungs with buffer (0.1M phosphate pH 7.5) via the pulmonary artery. The lung tissue (18.3 g total wet wt.), was then minced, suspended in three volumes of buffer and homogenized using, initially, a Brinkmann polytron homogenizer and, finally, a glass-teflon tissue grinder. The homogenate was centrifuged at 12,000 g for 1 hr. and the resultant supernatant recentrifuged at 110,000 g for 1 hr. The 110,000 g pellet was taken up in 10 ml of buffer, divided into 5×2 ml aliquots and stored at -70° until use.
(§1) Low specific activity PGH2 (3.3 μCi/μmole) was obtained from Dr. W. E. M. Lands of the University of Michigan. PGH2 of higher specific activity (16.0 μCi/μmole) was purchased from Ran Biochemicals, Tel-Aviv, Israel.
(§2) The inhibitors tested were prepared as solutions (1-10 mg/ml) in 95% ethanol.
(§3) Assay for Thromboxane Synthase
(§4) To a 12×75 mm tube containing [1-^14 C] PGH2 (2 μg, 0.01 μCi or 0.05 μCi) and inhibitor (1 mM final assay concentration, in 10 μl of ethanol) in 225 μl of phosphate buffer (0.1M, pH 7.5), was added to an aliquot of guinea pig lung microsomes (25 μl, containing 400 μg protein) or an aliquot of human platelet microsomes (25 μl, containing .congruent.[…] protein). The solution was incubated in a 22° water bath for 2 min.; ether (1 ml) and citric acid (25 μMoles) were added, and the tube plunged into an acetone-dry ice bath. The ether extract was transferred to a 1.0 ml Reacti-vial, and the volume reduced under nitrogen to .congruent.50 μl.
(§5) The extract was applied to an I.T.L.C., type SG, glass fiber sheet (Gelman Instrument Co., Ann Arbor, Mich.) and developed in isooctane; methyl ethyl ketone: acetic acid (100:19:1 or 100:9:1) (19). The sheets were air dried and scanned using a Berthold LB 2760 Radiochromatographic Scanner. In certain cases, based on the radiochromatographic profile obtained, the sheets were cut, the appropriate regions placed in scintillation vials, 10 ml of LSC cocktail (Yorktown Research, S. Hackensack, NJ) added, and the relative cpm determined.

TXA2 Synthase = assay: TXA2 synthase IC50 as listed in Table I (enzyme source not stated); assay type: biochemical
Description: (§6) Determination of Inhibition of Thromboxane Synthase Activity Isolation of Human Platelet Microsomes
as §3, §4, §5

[2] = tested on: isolated perfused rat pancreas; assay: Insulin secretion by isolated perfused rat pancreas; parameters: key: insulin AUC ratio: 1st glucose pulse / 2nd pulse with compound; details: 16.7 mM glucose, control 1.0 ± 0.04 (n = 5)
Description: Determination of Insulin-Secretory Activity in the Isolated Perfused Rat Pancreas
Pancreata were obtained from young adult female Charles River rats weighing from 200-300 g. The animals were anaesthesized with sodium pentobarbitol (45 mg/kg), injected intraperitoneally, and the pancreas with its intact vasculature was removed and connected to an extracorporeal perfusion apparatus.
The basic perfusion solution contained: 133 mM NaCl, 4.4 mM KCl, 2.5 mM MgSO4, 2.4 mM Ca gluconate, 1.5 mM KH2 PO4, 29.4 mM NaHCO3, 4% dextran and 0.2% bovine serum albumin and glucose as discussed below. The perfusion flow rate was kept constant at 4 ml/min. After a 15-20 min equilibration period, the experimental protocol was begun. The pancreatic effluent was collected in either one or four-minute fractions.
The perfusion was run in the following sequence:
30 min 16.7 mM glucose-internal control
30 min 16.7 mM glucose and test compound
5 min 20 mM arginine-to check pancreas viability
Test compounds were dissolved in 90% ethanol to a concentration of 25 mM and then diluted in the perfusion buffer to the desired concentration. The perfusion effluent was collected in one or four min fractions-the samples were checked immediately, aliquoted for submission to radioimmunoassay and stored at -20° C. until the time of assay. The radioimmunoassay of insulin was carried out by a back-titration method using a pure rat insulin standard.
To assess the inhibitory activity of the test compounds, an inhibition index was calculated. The inhibition index is derived by comparing the insulin secretion response from treated versus nontreated pancreas preparations. For each preparation, a ratio of insulin secretion was calculated from the area under the insulin secretion curve of the first pulse of 16.7 mM glucose divided by the area under the curve of the second pulse of 16.7 mM glucose containing compound.

[3] = molecular target: T2, thromboxane synthase (Human Platelet Microsomes) (Homo sapiens, UniProt P24557); assay: Thromboxane synthase inhibition, human platelet microsomes; assay type: biochemical; details: enzyme source H = Human Platelet Microsomes; read-out: IC50
T2 construct: Platelets were obtained from 320 ml of whole blood and resuspended in 5.0 ml of Krebs-Hensleit buffer; from tissue; host or cells: human platelets (microsomes, 110,000 g pellet)
T2 sequence (P24557 1-533): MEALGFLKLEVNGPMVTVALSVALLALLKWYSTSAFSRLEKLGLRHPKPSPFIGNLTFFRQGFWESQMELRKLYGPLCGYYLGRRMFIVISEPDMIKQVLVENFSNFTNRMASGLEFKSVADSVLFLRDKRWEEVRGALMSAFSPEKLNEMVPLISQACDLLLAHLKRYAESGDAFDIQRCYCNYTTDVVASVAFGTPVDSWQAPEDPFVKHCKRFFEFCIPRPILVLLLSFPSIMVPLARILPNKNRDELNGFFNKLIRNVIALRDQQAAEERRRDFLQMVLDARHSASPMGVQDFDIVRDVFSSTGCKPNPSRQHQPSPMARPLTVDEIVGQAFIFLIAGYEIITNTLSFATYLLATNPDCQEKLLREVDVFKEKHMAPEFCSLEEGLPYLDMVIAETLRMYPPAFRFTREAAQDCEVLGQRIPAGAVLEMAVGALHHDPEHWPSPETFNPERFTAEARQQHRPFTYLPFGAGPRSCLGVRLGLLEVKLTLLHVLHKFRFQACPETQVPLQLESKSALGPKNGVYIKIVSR
Description: In said assay procedure, microsomes from guinea pig lung or human platelets are added to an endoperoxide intermediate in prostaglandin biosynthesis and the inhibitor in phosphate buffer solution followed by incubation, extraction and determination of the extent of thromboxane synthase inhibition by TLC with radiochromatographic profile analysis.
as §6
Platelets were obtained from 320 ml of whole blood and resuspended in 5.0 ml of Krebs-Hensleit buffer (CA^+2 free). After three consecutive freeze-thawing cycles, homogenization and centrifugation at 12,000 g for 45 min., the 12,000 supernatant was recentrifuged at 110,000 g for 60 min. The resultant pellet was resuspended in phosphate buffer (0.5 ml, 0.1M, pH 7.5) and stored at -70° until use.
as §1, §2, §3, §4, §5

[4] = tested on: thromboxane synthase from human platelets; details: highest potency among the imidazole derivatives tested; read-out: I50; cited from earlier work
obese Zucker rats = assay: Antiobesity activity in vivo in obese Zucker rats; parameters: species or system rat; details: 16 to 18 days; for Body Weight Gain: treated minus control
Description: Determination of Antiobesity Activity
Thromboxane synthase inhibitors were evaluated for antiobesity activity in vivo. Body weight, food intake and circulating insulin levels were monitored during periods of drug treatment. Analysis of carcass composition was performed at study termination.
Animals, Diets and Drug Administration
Lean and obese male and female Zucker rats bred at Hoffmann-La Roche Inc. (Nutley, NJ) were kept in wire-bottomed individual cages in light (12 hr dark and light cycles beginning at 6 p.m. and 6 a.m., respectively) and temperature-controlled (22°) rooms. All rats were fed chow diet (Ralston Purina Co., St. Louis, MO) ad libitum until one to three weeks before the start of drug treatment, at which time they were trained to consume a high glucose low fat (1% corn oil) diet which is herein referred to as G-70:1% CO. Following the one to three-week training period on G-70:1% CO, the average daily food intake was calculated, and the rats were weighed and divided into groups of four to seven rats each.
The control animals continued to eat the G-70:1% CO diet ad libitum, and the experimental groups were given G-70:1% CO diet containing drug (also fed ad libitum). The amount of drug added to the diet of each experimental group was based on calculations of food consumed per kg body weight using data collected at the end of the training period. […] The period of drug treatment ranged from 16 to 18 days as noted in the legends to the tables and graph. Food intake and body weight were recorded either daily or twice a week throughout the duration of the study. The amount of drug administered was calculated from the food intake per kg body weight for each experimental group. Body weight data are reported as the difference between the body weight gains of control and drug-treated animals. Food intake and insulin data are reported as percent of control.
^a Average duration of treatment was 16 to 18 days.
^b Body weight gain was computed by taking the difference between the
weight gain of treated and control rats.

[5] = tested on: thromboxane synthetase (rabbit platelet microsomes); details: result in words; cited from earlier work

T1 sequence (H0UT36 entry or part of it): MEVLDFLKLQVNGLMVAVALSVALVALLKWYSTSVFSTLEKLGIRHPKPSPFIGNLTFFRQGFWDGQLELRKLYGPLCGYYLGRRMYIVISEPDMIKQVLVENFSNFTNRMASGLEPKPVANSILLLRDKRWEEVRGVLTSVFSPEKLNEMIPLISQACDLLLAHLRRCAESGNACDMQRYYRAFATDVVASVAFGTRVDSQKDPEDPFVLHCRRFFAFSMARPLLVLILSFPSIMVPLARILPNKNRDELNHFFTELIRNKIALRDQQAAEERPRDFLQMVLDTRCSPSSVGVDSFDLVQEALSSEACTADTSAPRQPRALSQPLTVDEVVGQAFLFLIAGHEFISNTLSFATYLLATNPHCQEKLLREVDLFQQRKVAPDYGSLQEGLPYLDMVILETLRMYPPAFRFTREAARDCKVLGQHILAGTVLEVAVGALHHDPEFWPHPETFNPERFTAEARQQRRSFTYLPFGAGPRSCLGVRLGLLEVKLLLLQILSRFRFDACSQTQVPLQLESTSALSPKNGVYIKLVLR

| SMILES | IC50 [1] | IC50 (TXA2 Synthase) [µM] | IC50 [3] [µM] | Insulin Secretion Inhibition Index ([2]; 10 μM) | Insulin Secretion Inhibition Index ([2]; 100 μM) | other results |
| --- | --- | --- | --- | --- | --- | --- |
| S=C(n1ccnc1)n1ccnc1 [1,1'-carbonothioylbis-1H--imidazole, 1,1'-carbonothioylbis-1H-imidazole] | 10 to 100 µM | 15 | – | – | – | Insulin Secretion Inhibition Index ([2]; 1000 μM): 5 |
| c1ccc(C(c2ccccc2)(c2ccccc2)n2ccnc2)cc1 [1-(triphenylmethyl)-1H--imidazole, 1-(triphenylmethyl)-1H-imidazole] | 10 to 100 µM | 10 to 100 | 10 to 100 | 2 | – | – |
| CC(C)c1ccccc1-n1ccnc1 [1-[2-(1-methylethyl)phenyl]-1H--imidazole] | – | – | ~1 | – | – | IC50 [4]: ~0.01 µM |
| CC(C)Oc1ccc(-n2ccnc2)cc1 [1-[4-(1-methylethoxy)phenyl]-1H-imidazole] | – | 10 | ~10 | – | 4 | Food Consumption (obese Zucker rats; 82 mg/kg in diet, P ≤ 0.05): 80 ± 2 % of control; Insulin (obese Zucker rats; 82 mg/kg in diet, not marked significant): 94 ± 21 % of control; Body Weight Gain (obese Zucker rats; 82 mg/kg in diet, P ≤ 0.05): -18 g |
| CCCCCCCCCn1ccnc1 [1-nonyl-1H--imidazole] | – | – | – | – | – | IC50 [4]: ~0.01 µM |
| c1c[nH]cn1 [1H--imidazole, reference compound] | > 100 µM and < 1000 µM | 600 | – | – | 2 | Insulin Secretion Inhibition Index ([2]; 1000 μM): 3 |
| c1ccc2c(Cn3ccnc3)c[nH]c2c1 [3-(1H--imidazol-1-ylmethyl)-1H--indole, 3-(1H-imidazol-1-ylmethyl)-1H-indole] | – | 1 | ~1 | 1 | 32 | Insulin Secretion Inhibition Index ([2]; 50 μM): 13; Food Consumption (obese Zucker rats; 18 mg/kg in diet, P ≤ 0.05): 81 ± 1 % of control; Insulin (obese Zucker rats; 18 mg/kg in diet, P ≤ 0.05): 72 ± 9 % of control; Body Weight Gain (obese Zucker rats; 18 mg/kg in diet, P ≤ 0.05): -24 g; Food Consumption (obese Zucker rats; 55 mg/kg in diet, P ≤ 0.05): 63 ± 4 % of control; Insulin (obese Zucker rats; 55 mg/kg in diet, P ≤ 0.05): 12 ± 2 % of control; Body Weight Gain (obese Zucker rats; 55 mg/kg in diet, P ≤ 0.05): -68 g |
| Oc1ccc(-n2ccnc2)cc1 [4-(1H--imidazol-1-yl)phenol, 4-(1H-imidazol-1-yl)phenol] | – | 1 | ~1 | 2 | – | – |
| CC(C)c1[nH]c2ccccc2c1C(=O)c1cccnc1 [[2-(1-methylethyl)-1H-indol-3-yl)]-3-pyridinyl-methanone] | – | 1 | ~1 | – | 5 | Food Consumption (obese Zucker rats; 94 mg/kg in diet, not marked significant): 89 ± 4 % of control; Body Weight Gain (obese Zucker rats; 94 mg/kg in diet, P ≤ 0.05): -17 g |
| c1ccncc1 [pyridine] | – | – | – | – | – | enzymatic formation of TXB2 from PGH2 [5]: inhibition |
